Results taken from ChEMBL document CHEMBL1138444 (J Med Chem, 2009).

What was measured:
[1] = in vitro; conditions: human, microsomes
[2] = in vitro; conditions: rat, microsomes
[3] = species on record: Mus musculus; test: animal or person; conditions: NSA, ip, read-out: INH
[4] = species on record: Mus musculus; test: animal or person; conditions: NSA, ip, read-out: INH; remark: listed apart in the source
[5] = physchem; conditions: polyethylene glycol
[6] = species on record: Rattus norvegicus; test: animal or person; conditions: Sprague-Dawley, po, read-out: INH
[7] = species on record: Rattus norvegicus; conditions: in vivo
[8] = in vivo; conditions: rat, po
[9] = in vivo; conditions: rat
[10] = in vivo; conditions: rat; remark: listed apart in the source
[11] = in vivo; conditions: rat; remark: listed apart in the source
[12] = in vivo; conditions: rat, brain and plasma, ip

Structure (SMILES)	microsomal CLint [1]	microsomal CLint [2]	inhibition in vivo at 3 mg/kg [3]	inhibition in vivo at 1 mg/kg [4]	solubility [5]	inhibition in vivo at 10 mg/kg [6]	clearance [7]	bioavailability [8]	half-life [9]	Cmax [10]	Tmax [11]	Kp [12]
O=C(NCc1cccc(Cl)c1)c1ccc2c(c1)N=C(N1CCCCC1)c1ccccc1S2	265 µL/min/mg	644 µL/min/mg	–	–	–	–	–	–	–	–	–	–
CN/C(=N\S(=O)(=O)c1ccc(Cl)cc1)N1C[C@H](c2ccccc2)C(c2ccc(Cl)cc2)=N1 (racemic) [IBIPINABANT]	–	–	82%	51%	–	–	–	–	–	–	–	–
O=C(NCc1cccc(Cl)c1)c1ccc2c(c1)N=C(N1CCC(F)(F)CC1)c1ccccc1S2	40 µL/min/mg	66 µL/min/mg	–	–	–	–	–	–	–	–	–	–
CCCC1=Nc2cc(C(=O)NC3CCN(C(=O)OCC)CC3)ccc2Sc2ccccc21	279 µL/min/mg	539 µL/min/mg	–	–	–	–	–	–	–	–	–	–
CCCCNC(=O)c1ccc2c(c1)N=C(c1ccc(F)c(Cl)c1)c1ccccc1S2	16 µL/min/mg	58 µL/min/mg	94%	70%	> 13 mg/mL	59%	–	–	–	–	–	–
Cc1c(C(=O)NN2CCCCC2)nn(-c2ccc(Cl)cc2Cl)c1-c1ccc(Cl)cc1 [RIMONABANT]	41 µL/min/mg	159 µL/min/mg	–	70%	–	55%	–	–	–	–	–	–
CCCCNC(=O)c1ccc2c(c1)N=C(c1ccc(Cl)c(Cl)c1)c1ccccc1S2	–	32 µL/min/mg	58%	–	> 14 mg/mL	–	–	–	–	–	–	–
CCCCNC(=O)c1ccc2c(c1)N=C(c1ccc(Cl)cc1)c1ccccc1S2	24 µL/min/mg	89 µL/min/mg	82%	71%	> 3.7 mg/mL	69%	0.51 mL/min/kg	25%	5.8 h	677 nM	6 h	–
CC(C)CNC(=O)c1ccc2c(c1)N=C(c1ccc(Cl)s1)c1ccccc1S2	–	–	73%	–	–	54%	–	–	–	–	–	–
O=C(NN1CCCCC1)c1ccc2c(c1)N=C(C1CCCCC1)c1ccccc1S2	84 µL/min/mg	846 µL/min/mg	–	–	–	–	7.36 mL/min/kg	13%	2.1 h	651 nM	0.5 h	4
